The values below come from patent US8809350B2, “Purine and pyrimidine CDK inhibitors and their use for the treatment of autoimmune diseases” (priority 2004, dated 2014).

One assay concerns the target CDK7/cyclin H (Homo sapiens, UniProt P50613). Briefly: CDK 7 and 9 assay (CTD peptide substrate). The class given is biochemical. To be noted: in-house kinase assays; read-out: Average IC50 CDK7H. As for the experimental part: (§1) Kinase activity was investigated by measuring the incorporation of radioactive phosphate from ATP into appropriate polypeptide substrates. Recombinant protein kinases and kinase complexes were produced or obtained commercially. Assays were performed using 96-well plates and appropriate assay buffers (typically 25 mM β-glycerophosphate, 20 mM MOPS, 5 mM EGTA, 1 mM DTT, 1 mM […], pH 7.4), into which were added 2-4 μg of active enzyme with appropriate substrates. The reactions were initiated by addition of Mg/ATP mix (15 mM MgCl2+100 μM ATP with 30-50 kBq per well of [γ-^32P]-ATP) and mixtures incubated as required at 30° C. Reactions were stopped on ice, followed by filtration through p81 filterplates or GF/C filterplates (Whatman Polyfiltronics, Kent, UK). After washing 3 times with 75 mM aq orthophosphoric acid, plates were dried, scintillant added and incorporated radioactivity measured in a scintillation counter (TopCount, Packard Instruments, Pangbourne, Berks, UK). Compounds for kinase assay were made up as 10 mM stocks in DMSO and diluted into 10% DMSO in assay buffer.
(§2) The reaction was stopped by placing the plate on ice for 2 min. Avidin (50 μg) was added to each well, and the plate was incubated at room temp for 30 min. The samples were transferred to a 96-well P81 filter plate, and washed (4×200 μL per well) with 75 mM phosphoric acid. Microscint 40 scintillation liquid (50 μL) was added to each well, and the amount of ^32P incorporation for each sample was measured using a Packard Topcount microplate scintillation counter.

Another assay has as its system HCT116 cells. As to conditions: cited from earlier work.
The next assay concerns stimulated PBMCs. Briefly: T cell proliferation assay (BrdU ELISA in stimulated PBMCs). The class given is cell-based. As for the experimental part:
PBMCs were seeded in 96 well plates at 1×10^5 cells/well, in 50 μL per well culture medium. […] All stimulants and compounds were made up to 4× final concentration in tissue culture medium and 25 μL of each drug and stimulant was then added to wells, for a final volume of 100 μL/well. For unstimulated controls, 25 μL tissue culture medium was added to wells instead of stimulant and for untreated cells, 25 μL/well tissue culture medium containing equal volume DMSO (0.1% final) was added. Three adjacent wells were treated for each stimulation/treatment condition and the mean value calculated for analysis.
In addition, PBMCs were stimulated with ConA (Concanavalin A, Sigma C5275) at concentrations ranging from 0.5 μg/mL to 100 μg/mL to identify its stimulatory effect and optimal concentration.
Cells were labelled with BrdU for two hours prior to harvesting. Plates were then centrifuged for 10 minutes at 300 g (RT), supernatant removed from wells by pipetting and cells dried for 1 hour at 60° C. FixDenat solution was added to plates (100 μL/well) and incubated for 30 minutes, then flicked to remove and anti-BrdU-POD solution added to plates (100 μL/well) and incubated for 90 minutes.
(Dividing cells build labelled thymidine or BrdU into new DNA.)

The target of a further assay is CDK9/cyclin T1 (Homo sapiens, UniProt P50750). Briefly: CDK 7 and 9 assay (CTD peptide substrate). It counts as biochemical. To be noted: in-house kinase assays; read-out: Average IC50 CDK9T1. As for the experimental part:
as §1, §2

A further assay relates to tumour cell panels. Briefly: In-house 72 hour cytotoxicity assays on tumour cell panels. The class given is cell-based.
For the next assay, the target named is CDK2A (Homo sapiens, UniProt P24941). Briefly: In-house kinase assay (32P incorporation). The class given is biochemical. To be noted: in-house kinase assays. As for the experimental part:
as §1

Another assay has as its target CDK2E (Homo sapiens, UniProt P24941). Briefly: In-house kinase assay (32P incorporation). It counts as biochemical. As to conditions: in-house kinase assays. As for the experimental part: as §1
In another assay the target is T1, AurA (Homo sapiens, UniProt O14965).
T1 sequence (O14965 1-403): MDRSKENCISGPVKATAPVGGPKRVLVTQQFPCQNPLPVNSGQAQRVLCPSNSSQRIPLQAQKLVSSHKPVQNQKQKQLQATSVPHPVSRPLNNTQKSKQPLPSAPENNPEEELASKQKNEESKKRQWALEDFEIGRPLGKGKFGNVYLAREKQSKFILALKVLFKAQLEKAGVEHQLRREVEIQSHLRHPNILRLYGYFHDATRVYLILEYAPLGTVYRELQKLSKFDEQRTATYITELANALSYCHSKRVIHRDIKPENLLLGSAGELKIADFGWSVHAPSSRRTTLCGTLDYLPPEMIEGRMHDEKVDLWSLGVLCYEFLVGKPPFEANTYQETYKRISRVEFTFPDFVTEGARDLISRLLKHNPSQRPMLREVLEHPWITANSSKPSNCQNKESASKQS
Briefly: In-house kinase assay (32P incorporation). It counts as biochemical. To be noted: in-house kinase assays. As for the experimental part: as §1

The target of a further assay is AurB (Homo sapiens, UniProt Q96GD4). Briefly: In-house kinase assay (32P incorporation). It counts as biochemical. To be noted: in-house kinase assays. As for the experimental part:
as §1

For the next assay, the target named is CDK4D1 (Homo sapiens, UniProt P11802). Briefly: In-house kinase assay (32P incorporation). It counts as biochemical. To be noted: in-house kinase assays. As for the experimental part:
as §1

Another assay concerns the target CDK6D3 (Homo sapiens, UniProt Q00534). Briefly: In-house kinase assay (32P incorporation). The class given is biochemical. To be noted: in-house kinase assays. As for the experimental part:
as §1

Another assay has as its target CDK1B (Homo sapiens, UniProt P06493). Briefly: In-house kinase assay (32P incorporation). It counts as biochemical. As to conditions: in-house kinase assays. As for the experimental part:
as §1

The mark [1] stands for this setting: rounded IC50 value used for ease of calculation in PBMC assays, read-out: IC50 Used.
Where [2] appears, read: Example 3, PHA stimulated PBMCs, compounds at IC50 to 4×IC50, 48 hours after stimulation.
The mark [3] stands for this setting: Example 3, PMA/I stimulated PBMCs, all concentrations.
The mark [4] stands for this setting: Example 4, PHA or ConA stimulated PBMCs, 0.25×IC50 to 4×IC50, 48 and 72 hours.

Molecules are shown by their SMILES. Entries after “also recorded” stand apart in the source; their conditions may differ. Like-named read-outs stand apart in the source and are kept apart here.

Chain of CDK7/cyclin H (P50613 whole entry): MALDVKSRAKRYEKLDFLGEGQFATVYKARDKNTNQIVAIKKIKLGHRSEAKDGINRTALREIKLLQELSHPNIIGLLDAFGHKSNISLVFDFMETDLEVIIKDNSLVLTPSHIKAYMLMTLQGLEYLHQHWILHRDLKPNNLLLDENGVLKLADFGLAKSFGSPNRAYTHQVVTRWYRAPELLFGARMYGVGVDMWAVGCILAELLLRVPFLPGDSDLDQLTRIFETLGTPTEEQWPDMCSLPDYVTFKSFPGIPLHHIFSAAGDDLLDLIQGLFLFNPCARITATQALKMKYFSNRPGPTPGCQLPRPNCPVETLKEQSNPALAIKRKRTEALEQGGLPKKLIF
Chain of CDK7/cyclin H (P51946 whole entry partner): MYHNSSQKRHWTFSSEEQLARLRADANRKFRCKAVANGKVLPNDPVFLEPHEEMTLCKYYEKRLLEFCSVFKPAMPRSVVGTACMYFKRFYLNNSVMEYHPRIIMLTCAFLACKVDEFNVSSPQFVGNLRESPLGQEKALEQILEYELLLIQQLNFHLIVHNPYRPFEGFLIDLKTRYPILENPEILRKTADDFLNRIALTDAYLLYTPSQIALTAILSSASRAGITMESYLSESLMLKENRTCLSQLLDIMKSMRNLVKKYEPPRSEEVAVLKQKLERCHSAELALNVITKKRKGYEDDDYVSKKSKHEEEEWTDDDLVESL
Chain of AurB (Q96GD4 whole entry): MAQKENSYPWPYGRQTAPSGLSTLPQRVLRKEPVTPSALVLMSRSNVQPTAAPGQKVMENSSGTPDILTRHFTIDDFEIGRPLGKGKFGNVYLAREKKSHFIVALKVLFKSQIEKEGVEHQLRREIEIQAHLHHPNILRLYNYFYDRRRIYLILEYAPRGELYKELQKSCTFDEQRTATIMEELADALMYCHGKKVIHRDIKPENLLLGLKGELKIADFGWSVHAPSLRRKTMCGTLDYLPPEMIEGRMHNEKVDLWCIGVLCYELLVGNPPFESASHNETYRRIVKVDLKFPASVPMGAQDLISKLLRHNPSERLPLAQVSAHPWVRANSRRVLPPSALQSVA
Chain of CDK6D3 (Q00534 whole entry): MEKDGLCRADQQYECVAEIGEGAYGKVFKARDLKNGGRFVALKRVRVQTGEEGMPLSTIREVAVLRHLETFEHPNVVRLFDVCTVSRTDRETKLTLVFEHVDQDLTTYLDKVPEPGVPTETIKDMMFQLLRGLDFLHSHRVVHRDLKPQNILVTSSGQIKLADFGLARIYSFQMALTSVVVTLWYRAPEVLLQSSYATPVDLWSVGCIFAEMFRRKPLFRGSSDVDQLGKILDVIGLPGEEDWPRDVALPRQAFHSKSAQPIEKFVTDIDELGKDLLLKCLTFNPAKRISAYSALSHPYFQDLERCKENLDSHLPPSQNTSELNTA
Chain of CDK6D3 (P30281 whole entry partner): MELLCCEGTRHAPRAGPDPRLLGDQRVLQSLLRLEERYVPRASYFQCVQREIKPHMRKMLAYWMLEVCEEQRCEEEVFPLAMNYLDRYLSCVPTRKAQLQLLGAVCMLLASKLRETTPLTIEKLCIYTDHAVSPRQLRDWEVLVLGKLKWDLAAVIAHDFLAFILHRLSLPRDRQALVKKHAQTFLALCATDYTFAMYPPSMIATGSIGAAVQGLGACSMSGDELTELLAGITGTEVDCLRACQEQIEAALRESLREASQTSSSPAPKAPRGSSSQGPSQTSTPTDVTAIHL
Chain of CDK4D1 (P11802 whole entry): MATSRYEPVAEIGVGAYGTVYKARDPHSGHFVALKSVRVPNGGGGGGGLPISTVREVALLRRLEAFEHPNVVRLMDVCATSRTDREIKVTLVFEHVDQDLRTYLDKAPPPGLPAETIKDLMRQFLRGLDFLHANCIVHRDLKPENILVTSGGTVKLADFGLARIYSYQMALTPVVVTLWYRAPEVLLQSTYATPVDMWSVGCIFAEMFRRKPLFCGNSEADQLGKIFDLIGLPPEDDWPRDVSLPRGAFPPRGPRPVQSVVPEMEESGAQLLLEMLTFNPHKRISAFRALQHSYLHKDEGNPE
Chain of CDK4D1 (P24385 whole entry partner): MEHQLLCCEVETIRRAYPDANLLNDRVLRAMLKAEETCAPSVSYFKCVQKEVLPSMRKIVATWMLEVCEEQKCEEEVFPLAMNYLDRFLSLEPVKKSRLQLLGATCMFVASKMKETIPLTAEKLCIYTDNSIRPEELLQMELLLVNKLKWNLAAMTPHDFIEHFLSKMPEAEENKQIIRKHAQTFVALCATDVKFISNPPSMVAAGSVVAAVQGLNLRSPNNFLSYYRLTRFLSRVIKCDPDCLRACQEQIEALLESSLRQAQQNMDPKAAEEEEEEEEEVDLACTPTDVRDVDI
Chain of CDK9/cyclin T1 (P50750 whole entry): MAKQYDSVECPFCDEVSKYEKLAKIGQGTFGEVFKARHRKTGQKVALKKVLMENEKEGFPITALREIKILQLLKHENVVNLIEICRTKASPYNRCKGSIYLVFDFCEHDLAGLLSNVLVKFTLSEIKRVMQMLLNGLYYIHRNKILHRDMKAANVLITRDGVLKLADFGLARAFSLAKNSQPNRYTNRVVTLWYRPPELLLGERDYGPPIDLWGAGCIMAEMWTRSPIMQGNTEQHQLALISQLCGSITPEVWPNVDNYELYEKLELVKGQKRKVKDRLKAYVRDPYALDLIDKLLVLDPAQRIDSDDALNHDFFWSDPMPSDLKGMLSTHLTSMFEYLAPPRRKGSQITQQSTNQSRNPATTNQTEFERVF
Chain of CDK9/cyclin T1 (O60563 whole entry partner): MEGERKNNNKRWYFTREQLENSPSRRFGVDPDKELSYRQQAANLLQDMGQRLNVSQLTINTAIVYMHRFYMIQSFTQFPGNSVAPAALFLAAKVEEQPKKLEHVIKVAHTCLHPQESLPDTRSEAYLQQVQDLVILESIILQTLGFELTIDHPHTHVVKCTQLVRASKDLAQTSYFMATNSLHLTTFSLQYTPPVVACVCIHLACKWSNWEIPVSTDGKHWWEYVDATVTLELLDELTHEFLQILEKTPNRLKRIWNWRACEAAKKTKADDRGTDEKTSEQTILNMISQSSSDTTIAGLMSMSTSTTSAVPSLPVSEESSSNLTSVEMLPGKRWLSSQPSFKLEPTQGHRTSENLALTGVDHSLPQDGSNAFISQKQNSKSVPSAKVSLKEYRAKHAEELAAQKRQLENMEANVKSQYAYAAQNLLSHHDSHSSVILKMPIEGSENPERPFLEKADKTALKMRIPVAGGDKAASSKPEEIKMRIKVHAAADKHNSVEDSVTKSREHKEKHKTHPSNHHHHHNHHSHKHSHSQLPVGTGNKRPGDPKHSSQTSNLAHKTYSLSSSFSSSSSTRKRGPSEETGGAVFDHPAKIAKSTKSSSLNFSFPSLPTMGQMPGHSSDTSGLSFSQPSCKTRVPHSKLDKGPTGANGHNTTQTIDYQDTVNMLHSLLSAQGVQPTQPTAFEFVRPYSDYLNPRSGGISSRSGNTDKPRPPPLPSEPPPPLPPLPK
Chain of CDK1B (P06493 whole entry): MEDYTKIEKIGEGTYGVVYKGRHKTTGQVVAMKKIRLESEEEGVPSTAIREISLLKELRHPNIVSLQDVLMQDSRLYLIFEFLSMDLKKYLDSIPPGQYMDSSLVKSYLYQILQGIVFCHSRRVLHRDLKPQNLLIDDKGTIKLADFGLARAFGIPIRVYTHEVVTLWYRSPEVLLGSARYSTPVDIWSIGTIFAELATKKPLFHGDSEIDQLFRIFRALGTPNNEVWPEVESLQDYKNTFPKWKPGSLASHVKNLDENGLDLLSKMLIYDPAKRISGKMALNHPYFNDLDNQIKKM
Chain of CDK1B (P14635 whole entry partner): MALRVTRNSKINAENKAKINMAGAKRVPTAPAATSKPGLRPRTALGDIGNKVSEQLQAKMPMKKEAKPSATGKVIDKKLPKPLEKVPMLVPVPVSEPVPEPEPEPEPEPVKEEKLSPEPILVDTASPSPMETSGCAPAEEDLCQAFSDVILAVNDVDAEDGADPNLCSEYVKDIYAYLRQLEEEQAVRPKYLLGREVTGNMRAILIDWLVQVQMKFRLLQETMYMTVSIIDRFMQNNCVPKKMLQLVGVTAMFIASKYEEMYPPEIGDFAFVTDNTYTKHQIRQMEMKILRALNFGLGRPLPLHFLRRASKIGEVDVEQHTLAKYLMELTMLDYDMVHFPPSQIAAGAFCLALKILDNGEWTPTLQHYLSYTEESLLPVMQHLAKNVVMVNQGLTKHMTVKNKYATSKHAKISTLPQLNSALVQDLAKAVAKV

One may read the IC50 as the concentration that inhibits the measured activity by half. As for `Cn1cnc2c(NCc3ccccc3)nc(NCCO)nc21` [Compound 3], the IC50 at CDK7/cyclin H was greater than 20000 nM; in the assay on HCT116 cells (published for HCT116 cells, Raynaud et al. 2005, no in-house data, read-out: IC50 Average), 56000 nM; with HCT116 cells (rounded from published HCT116 IC50, used in PBMC assays, read-out: IC50 Used) it was 50000 nM.
Take `Cc1c(-c2ccnc(Nc3ccc(N4CCNCC4)cc3)n2)sc(=O)n1C` [Compound 7]: the “Concentration reaching complete inhibition of proliferation activity” value in the assay with stimulated PBMCs (Example 4, PHA or ConA stimulated PBMCs) is 0.25 ×IC50. The IC50 on CDK7/cyclin H is 983 nM; on CDK9/cyclin T1, 195 nM; in the assay on tumour cell panels (72 h, read-out: IC50 Average), 5310 nM; with tumour cell panels (setting [1]), 5000 nM; against CDK2A, 223 nM; against CDK2E it was 71 nM. Moreover, the IC50 was greater than 10000 nM on AurA; greater than 10000 nM at AurB; 7630 nM against CDK4D1; 6270 nM at CDK6D3; 4950 nM against CDK1B.
Regarding `CCNc1nc(C)c(-c2ccnc(Nc3ccc(CNC(C)=O)cc3)n2)s1` [Compound 9], the BrdU incorporation result in the assay on stimulated PBMCs (setting [2]) is on record as “clearly concentration dependent”; in the assay on stimulated PBMCs (setting [3]), “higher than in PHA stimulated cells”; with stimulated PBMCs (setting [4]), “concentration dependency was clearly seen; also recorded: needed at higher concentrations than the other compounds”. In addition, the IC50 is 147 nM on CDK7/cyclin H; 97 nM at CDK9/cyclin T1; 250 nM in the assay on tumour cell panels (72 h, read-out: IC50 Average); 250 nM in the assay on tumour cell panels (setting [1]); 1670 nM against CDK2A; 204 nM on CDK2E. Moreover, the IC50 on AurA came out at 94 nM; against AurB it was 21 nM; against CDK4D1, 118 nM; against CDK6D3, 110 nM; on CDK1B, 2000 nM.
`CCNc1nc(C)c(-c2ccnc(Nc3ccc(S(C)(=O)=O)cc3)n2)s1` [Compound 10]: the BrdU incorporation entry is “clearly concentration dependent” with stimulated PBMCs (setting [2]), “higher than in PHA stimulated cells” with stimulated PBMCs (setting [3]) and “concentration dependency was clearly seen; also recorded: needed at higher concentrations than the other compounds” with stimulated PBMCs (setting [4]). Moreover, the half-maximal inhibitory concentration (IC50) at CDK7/cyclin H is 455 nM; on CDK9/cyclin T1, 81 nM; in the assay with tumour cell panels (72 h, read-out: IC50 Average) it was 753 nM; in the assay on tumour cell panels (setting [1]), 1000 nM; at CDK2A, 115 nM; at CDK2E, 13 nM. The half-maximal inhibitory concentration (IC50) is greater than 10000 nM at AurA; greater than 100000 nM at AurB; 5100 nM at CDK4D1; 6400 nM against CDK6D3; 1490 nM on CDK1B.
